In patent US20250319056A1, “METHODS FOR TREATING CANCER” (THE TRUSTEES OF INDIANA UNIVERSITY, priority 2024, published 2025):

Columns and labels:
HCT-116 cells = test: AlamarBlue cell viability assay, HCT-116 colon cancer cells; assay type: cell-based, human; conditions: for Average Selectivity Index: CC50 non-cancer cells (FHC, FHs 74Int) compared to EC50 HCT-116; for EC50: Homo sapiens, HCT-116, 48 h, AlamarBlue, 48 h with compound, read-out: Human Cell Viability EC50 Colon Cancer (HCT 116)
DLD-1 cells = test: AlamarBlue cell viability assay, DLD-1 colon cancer cells; assay type: cell-based; conditions: Homo sapiens, 48 h with compound, ^BP = curve baseline plateaued between ~10-20%, read-out: Human Cell Viability EC50 Colon Cancer (DLD1)
HT-29 cells = test: AlamarBlue cell viability assay, HT-29 colon cancer cells; assay type: cell-based; conditions: Homo sapiens, 48 h with compound, ^BP = curve baseline plateaued between ~10-20%
mHSP60/10 = target: T1, mHSP60/10 (Homo sapiens, UniProt P10809); test: mHSP60/10-mediated dMDH refolding assay; assay type: biochemical; conditions: denatured malate dehydrogenase client; read-out: IC50 mHSP60/10-dMDH refolding
T1 construct: Processed human HSP60 (mHSP60—that would be in mitochondria) was expressed in Rosetta™ 2 (DE3) E. coli; octa-Histidine tag (TEV-cleavable) (N, cleaved yes); made in house; host or cells: E. coli Rosetta 2 (DE3) for mHSP60; Rosetta 2 (DE3) pLysS for HSP10
T1 sequence (P10809 27-573): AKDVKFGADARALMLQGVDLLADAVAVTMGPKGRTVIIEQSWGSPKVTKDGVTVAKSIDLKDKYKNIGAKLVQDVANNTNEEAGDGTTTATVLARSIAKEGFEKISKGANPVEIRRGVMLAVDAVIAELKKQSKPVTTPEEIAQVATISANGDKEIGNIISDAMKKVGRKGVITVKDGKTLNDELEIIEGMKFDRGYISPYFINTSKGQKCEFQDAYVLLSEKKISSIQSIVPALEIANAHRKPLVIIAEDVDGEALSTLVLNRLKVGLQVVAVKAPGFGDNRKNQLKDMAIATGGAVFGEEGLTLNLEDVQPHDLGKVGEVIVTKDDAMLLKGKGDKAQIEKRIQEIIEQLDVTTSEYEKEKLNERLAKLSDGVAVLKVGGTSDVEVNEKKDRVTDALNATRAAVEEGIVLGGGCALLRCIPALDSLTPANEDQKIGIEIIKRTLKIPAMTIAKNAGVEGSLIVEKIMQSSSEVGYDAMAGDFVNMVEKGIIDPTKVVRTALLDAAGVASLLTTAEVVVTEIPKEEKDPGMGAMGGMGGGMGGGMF

GroEL/ES = target: T2, GroEL/ES (Escherichia coli, UniProt P0A6F5); test: GroEL/ES-dMDH refolding assay; assay type: biochemical, E. coli
T2 construct: made in house; host or cells: NEB 5-alpha E. coli for GroEL; E. coli BL21 (DE3) for GroES
T2 sequence (P0A6F5 2-548): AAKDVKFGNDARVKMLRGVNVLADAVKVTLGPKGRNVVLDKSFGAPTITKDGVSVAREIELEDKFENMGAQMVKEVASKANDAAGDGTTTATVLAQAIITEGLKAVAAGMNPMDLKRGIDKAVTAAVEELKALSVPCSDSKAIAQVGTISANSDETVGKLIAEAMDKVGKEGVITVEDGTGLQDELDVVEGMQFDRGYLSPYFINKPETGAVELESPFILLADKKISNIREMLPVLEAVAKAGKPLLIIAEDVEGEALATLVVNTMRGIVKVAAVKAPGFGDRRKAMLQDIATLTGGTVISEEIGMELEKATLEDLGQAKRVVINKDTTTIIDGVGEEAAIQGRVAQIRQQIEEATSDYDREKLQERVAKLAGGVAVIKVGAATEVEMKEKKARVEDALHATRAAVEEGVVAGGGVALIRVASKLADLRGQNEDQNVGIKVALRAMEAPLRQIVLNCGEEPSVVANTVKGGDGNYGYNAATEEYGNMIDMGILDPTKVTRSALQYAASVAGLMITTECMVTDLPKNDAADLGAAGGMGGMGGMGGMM

[1] = AlamarBlue cell viability assay, non-cancerous colon FHC cells; conditions: human, FHC non-cancerous colon cells, Human Cell Viability CC50 Colon (FHC), non-cancerous colon cells, AlamarBlue, 48 h
FHC cells = test: as above; conditions: read-out: Human Cell Viability CC50 Colon (FHC); non-cancerous colon cells, AlamarBlue, 48 h
[2] = AlamarBlue cell viability assay, non-cancerous intestine FHs-74Int cells; conditions: human, FHs-74Int non-cancerous intestine cells, Human Cell Viability CC50 Intestine (FHs 74Int), non-cancerous intestine cells, AlamarBlue, 48 h
FHs-74Int cells = test: as above; conditions: read-out: Human Cell Viability CC50 Intestine (FHs 74Int); non-cancerous intestine cells, AlamarBlue, 48 h
NCI-60 cancer cell panel [3] = test: NCI-60 panel single-dose cell growth screen; assay type: cell-based; conditions: single dose 10 μM; 0 = cytostatic, -100% = cytocidal, +100% = growth
Protocol: FIGS. 10A-10J show cell growth results for 10 lead candidate inhibitors (compound 162, FIG. 10A; compound 163, FIG. 10B; compound 164, FIG. 10C; compound 4, FIG. 10D; compound 165, FIG. 10E; compound 139, FIG. 10F; compound 132, FIG. 10G; compound 143, FIG. 10H; compound 147, FIG. 10I; compound 128, FIG. 10J) tested at 10 μM against the NCI cancer cell panel. Zero indicates no cells growth/death from what was initially plated (cytostatic inhibition). −100% indicates […] (cytocidal inhibition). +100% indicates cell growth.
In a previous study evaluating the anti-cancer effects of ABK inhibitors, the National Cancer Institute (NCI) database was explored for existing cytotoxicity results for any compounds bearing α,β-unsaturated ketone moieties against the comprehensive NCI-60 cancer cell panel. […] The HQ-NAH and NF-NAH inhibitor library was explored based on the similarity to Nifuroxazide's scaffold. […] Initial screening was performed at a single concentration of 10 μM, and cell growth results are presented in aggregate based on cancer cell origin (FIGS. 10A-10J).

NCI-60 cancer cell panel [4] = test: NCI-60 panel dose-response cell growth testing; assay type: cell-based; conditions: follow-up dose response, range across NCI-60 cell lines
Text: FIGS. 11A-11G show cell growth results in dose-response for 7 lead candidate inhibitors (compound 162, FIG. 11A; compound 164, FIG. 11B; compound 128, FIG. 11C compound 165, FIG. 11D; compound 139, FIG. 11E; compound 143, FIG. 11F; compound 147, FIG. 11G) from initial single-dose NCI-60 screen.
Therefore, they appeared to act in a cytocidal manner.

Row | Compound | Average Selectivity Index (HCT-116 cells) | EC50 (HCT-116 cells) [µM] | EC50 (DLD-1 cells) [µM] | EC50 (HT-29 cells) [µM] | IC50 (mHSP60/10) [µM] | IC50 (GroEL/ES) [µM] | CC50 at 48 h [1] [µM] | CC50 (FHC cells) [µM] | CC50 at 48 h [2] [µM] | CC50 (FHs-74Int cells) [µM] | cell growth % NCI cancer cell panel (NCI-60 cancer cell panel [3]) | GI50 (NCI-60 cancer cell panel [4]) [µM]
1 | COc1ccc(C(=O)N/N=C/c2ccc(O)c3ncccc23)cc1 [Compound 18, N′-((8-hydroxyquinolin-5-yl)methylene)-4-methoxybenzohydrazide] | 5.3 | 7.8 | 3.8 | 3.5 | 0.8 to 9 | 0.8 to 9 | 28.4 | 28 | 54.9 | 55 |  | 
2 | CCOc1ccc(S(=O)(=O)Nc2ccc(C(=O)N/N=C/c3ccc(O)c4ncccc34)cc2)cc1 [Compound 147, 4-ethoxy-N-(4-(2-((8-hydroxyquinolin-5-yl)methylene)hydrazine-1-carbonyl)phenyl)benzenesulfonamide] | 25 | 1.8 | 6.2 | 2.9 |  |  | 52 |  | 40 |  | negative % growth | 0.2 to 0.4
